Key:
Experiment in all cases: NHL cell line viability/apoptosis 384-well flow cytometry assay
Format in all cases: cell-based
[1] = tested on: CARNAVAL; details: CARNAVAL (DLBCL), 120 hours
Description: (§1) The following exemplary anti-proliferative assay uses exemplary non-Hodgkin lymphoma (NIL) cell lines (including diffuse large B-cell lymphoma (DLBCL), follicular lymphoma (FL), and mantle cell lymphoma (MCL)) (Table 5). The in vitro growth inhibitory activity of Compound 1 described herein was evaluated using a 384-well flow cytometry assay.
(§2) The cell lines in Table 5 were plated in 384-well flat bottom plates and assessed with increasing concentrations of compound ranging from 0.00015 to 10 μM or dimethyl sulfoxide (DMSO) control. The final concentration of DMSO was 0.1% (v/v). Following the addition of Compound 1 or DMSO and incubation for 120 hours, cell number and cell death were analyzed by flow cytometry (Attune®, Thermo Fisher) using Annexin V and the live-cell impermeant DNA dye, DRAQ7. Phosphatidylserine translocates from the inner layer to the outer layer of the cell membrane early in apoptosis and Annexin V binds to the exposed phosphatidylserine found on the surface of an apoptotic cell. The vital dye DRAQ7 is excluded by intact live cells and only stains cells that have died as a result of apoptosis or necrosis.
(§3) Flow cytometry data analysis was then performed using the Flow Jo_v10 software to determine the number of viable cells (Annexin V and DRAQ7 double negative staining cells) and percentage of apoptotic cells (Annexin V positive cells) for each condition. The live cell count for every concentration was normalized to the DMSO control (considered as 100%) to calculate the percentage of viable cells remaining after treatment and graphed using GraphPad Prism 7.03. The IC50 (50% inhibitory concentration) and Emax (maximum efficacy achieved) values were then calculated by performing nonlinear regression curve fitting using log(inhibitor) vs. normalized response—variable slope analysis on GraphPad Prism 7.03. Area under the curve (AUC) was calculated by performing area under curve analysis on GraphPad Prism 7.03. Similarly, for apoptosis analysis, the percentage of apoptosis combining both “early” (Annexin V positive and DRAQ7 negative) and “late” apoptosis (Annexin V and DRAQ7 positive) cell gates relative to DMSO was graphed using GraphPad Prism 7.03. The AUC, EC50 (concentration of Compound 1 that produces half-maximal apoptosis response) and Ymax (maximal percentage of apoptosis achieved) values from apoptosis curves were calculated by performing area under curve analysis and nonlinear regression curve fitting using log(agonist) vs. normalized response—Variable slope analysis on GraphPad Prism 7.03.
(§4) In Table 6, dose-response proliferation curves for the panel of NHL cell lines and non-linear curve-fit regression were used to determine IC50, AUC, and Emax for % viable cells (Emax for viability varies between 100 at low doses and 0 at high doses, which corresponds to inhibition of all viable cells), and dose-response apoptosis curves were used to determine the EC50, AUC, and Ymax for % apoptosis (Ymax for apoptosis varies from 0 at low doses and 100 at higher doses which corresponds to death of all cells). Tumor cells were exposed to serial dilutions (0.00015 to 10 μM) of Compound 1 or dimethyl sulfoxide (DMSO) control for 5 days. Viability and apoptosis for all cell lines was determined by Annexin V/[…] flow cytometry.

[2] = tested on: KARPAS-422; details: KARPAS-422 (DLBCL), 120 hours
Description: as §1, §2, §3, §4

[3] = tested on: OCI-LY3; details: OCI-LY3 (DLBCL), 120 hours
Description: as §1, §2, §3, §4

[4] = tested on: Pfeiffer; details: Pfeiffer (DLBCL), 120 hours
Description: as §1, §2, §3, §4

[5] = tested on: RC-K8; details: RC-K8 (DLBCL), 120 hours
Description: as §1, §2, §3, §4

[6] = tested on: SU-DHL-4; details: SU-DHL-4 (DLBCL), 120 hours
Description: as §1, §2, §3, §4

[7] = tested on: SU-DHL-8; details: SU-DHL-8 (DLBCL), 120 hours
Description: as §1, §2, §3, §4

[8] = tested on: U-2946; details: U-2946 (DLBCL), 120 hours
Description: as §1, §2, §3, §4

[9] = tested on: U-2973; details: U-2973, 120 hours
Description: as §1, §2, §3, §4

[10] = tested on: ULA; details: ULA (DLBCL), 120 hours
Description: as §1, §2, §3, §4

[11] = tested on: WILL-1; details: WILL-1 (DLBCL), 120 hours
Description: as §1, §2, §3, §4

[12] = tested on: WSU-DLCL; details: WSU-DLCL (DLBCL), 120 hours
Description: as §1, §2, §3, §4

[13] = read-out: IC50 (% Viable Cells)
[14] = Homo sapiens, read-out: IC50 (% Viable Cells)

With `O=C1CC[C@H](N2C(=O)c3cccc(NCc4ccc(CN5CC(N6CCOCC6)C5)cc4F)c3C2=O)C(=O)N1` [Compound 1, (S)-2-(2,6-dioxopiperidin-3-yl)-4-((2-fluoro-4-((3-morpholinoazetidin-1-yl)methyl)benzyl)amino)isoindoline-1,3-dione] as the compound, how does the “AUC (% Viable Cells)” value [1] read?
The value was 110.6.

And the “AUC (Apoptosis)” value [1]?
The value was 708.7.

And the EC50 [1]?
The EC50 was 152 nM.

What about the “Emax (% Viable Cells)” value [1] of the same compound?
Its value is 7.134%.

And the “Ymax (Apoptosis)” value [1]?
Its value is 77.84%.

And the IC50 [1, 13]?
The IC50 was 9.12 nM.

And the EC50 ([2]; Homo sapiens)?
The EC50 was 46.1 nM.

And the IC50 [2, 14]?
The IC50 was 13.1 nM.

What about the “AUC (% Viable Cells)” value [2] of the same compound?
Its value is 19.97.

And the “AUC (Apoptosis)” value [2]?
Its value is 911.9.

What about the “Emax (% Viable Cells)” value [2] of the same compound?
Its value is 0.8721%.

What about the “Ymax (Apoptosis)” value [2] of the same compound?
Its value is 93.99%.

And the EC50 ([3]; Homo sapiens)?
Its EC50 is 0.263 nM.

What about the IC50 [3, 14] of the same compound?
Its IC50 is no less than 10 µM.

What about the “AUC (% Viable Cells)” value [3] of the same compound?
The value was 965.1.

What about the “AUC (Apoptosis)” value [3] of the same compound?
The value was 24.63.

What about the “Emax (% Viable Cells)” value [3] of the same compound?
The value was 85.63%.

And the “Ymax (Apoptosis)” value [3]?
The value was 4.493%.

And the EC50 ([4]; Homo sapiens)?
Its EC50 is 13.6 nM.

What about the IC50 [4, 14] of the same compound?
The IC50 was 47.7 nM.

And the “AUC (% Viable Cells)” value [4]?
The value was 313.5.

What about the “AUC (Apoptosis)” value [4] of the same compound?
Its value is 493.3.

What about the “Emax (% Viable Cells)” value [4] of the same compound?
The value was 24.49%.

And the “Ymax (Apoptosis)” value [4]?
Its value is 51.82%.

What about the EC50 ([5]; Homo sapiens, RCK8) of the same compound?
The EC50 was 74.3 nM.

And the IC50 ([5]; Homo sapiens, RCK8, read-out: IC50 (% Viable Cells))?
The IC50 was 3.37 nM.

What about the “AUC (% Viable Cells)” value [5] of the same compound?
The value was 115.7.

And the “AUC (Apoptosis)” value [5]?
Its value is 349.2.

And the “Emax (% Viable Cells)” value [5]?
The value was 10.06%.

What about the “Ymax (Apoptosis)” value [5] of the same compound?
Its value is 26.31%.

And the EC50 ([6]; Homo sapiens)?
The EC50 was 782 nM.

What about the IC50 [6, 14] of the same compound?
Its IC50 is 278 nM.

What about the “AUC (% Viable Cells)” value [6] of the same compound?
The value was 296.2.

What about the “AUC (Apoptosis)” value [6] of the same compound?
The value was 209.

What about the “Emax (% Viable Cells)” value [6] of the same compound?
Its value is 23.44%.

What about the “Ymax (Apoptosis)” value [6] of the same compound?
Its value is 25.33%.

And the EC50 ([7]; Homo sapiens)?
The EC50 was 602 nM.

And the IC50 [7, 14]?
The IC50 was 486 nM.

What about the “AUC (% Viable Cells)” value [7] of the same compound?
Its value is 119.5.

What about the “AUC (Apoptosis)” value [7] of the same compound?
The value was 363.2.

What about the “Emax (% Viable Cells)” value [7] of the same compound?
The value was 2.081%.

What about the “Ymax (Apoptosis)” value [7] of the same compound?
The value was 85.44%.

What about the “AUC (% Viable Cells)” value [8] of the same compound?
The value was 45.47.

And the “AUC (Apoptosis)” value [8]?
The value was 762.6.

And the EC50 [8]?
Its EC50 is 192 nM.

What about the “Emax (% Viable Cells)” value [8] of the same compound?
Its value is 0.4821%.

What about the “Ymax (Apoptosis)” value [8] of the same compound?
The value was 93.34%.

And the IC50 [8, 13]?
Its IC50 is 4.6 nM.

What about the EC50 ([9]; Homo sapiens) of the same compound?
The EC50 was 2160 nM.

What about the IC50 [9, 14] of the same compound?
The IC50 was 6.78 µM.

And the “AUC (% Viable Cells)” value [9]?
The value was 853.4.

And the “AUC (Apoptosis)” value [9]?
The value was 391.9.

What about the “Emax (% Viable Cells)” value [9] of the same compound?
Its value is 19.45%.

And the “Ymax (Apoptosis)” value [9]?
Its value is 60.8%.

And the “AUC (% Viable Cells)” value [10]?
Its value is 0.5518.

What about the “AUC (Apoptosis)” value [10] of the same compound?
Its value is 995.3.

And the EC50 [10]?
The EC50 was 1.79 nM.

What about the “Emax (% Viable Cells)” value [10] of the same compound?
The value was 0.02523%.

And the “Ymax (Apoptosis)” value [10]?
Its value is 99.76%.

What about the IC50 [10, 13] of the same compound?
The IC50 was 0.99 nM.

What about the “AUC (% Viable Cells)” value [11] of the same compound?
Its value is 233.7.

And the “AUC (Apoptosis)” value [11]?
The value was 549.4.

What about the EC50 [11] of the same compound?
The EC50 was 2520 nM.

What about the “Emax (% Viable Cells)” value [11] of the same compound?
The value was 4.216%.

What about the “Ymax (Apoptosis)” value [11] of the same compound?
The value was 79.51%.

And the IC50 [11, 13]?
The IC50 was 817 nM.

And the “AUC (% Viable Cells)” value [12]?
The value was 341.9.

And the “AUC (Apoptosis)” value [12]?
The value was 565.1.

And the EC50 [12]?
Its EC50 is 18 nM.

What about the “Emax (% Viable Cells)” value [12] of the same compound?
Its value is 27.83%.

And the “Ymax (Apoptosis)” value [12]?
Its value is 59.91%.

And the IC50 [12, 13]?
The IC50 was 142 nM.

From patent US11390617B2, “Methods of treating non-Hodgkin lymphoma using 2-(2,6-dioxopiperidin-3-yl)-4-((2-fluoro-4-((3-morpholinoazetidin-1-yl)methyl)benzyl)amino)isoindoline-1,3-dione” (Celgene Corporation, priority 2019, dated 2022)
